Experimental data: patent US12030903B2, “Antiviral compounds” (Gilead Sciences, Inc., priority 2020, dated 2024)

Key:
[1] = HEp-2 CC50 (cytotoxicity in uninfected HEp-2 cells); format: cell-based; settings: human, CellTiter Glo
Procedure: Instead, an uninfected cell mixture at the same density is added at 20 uL/well to plates containing prediluted compounds, also at 100 nL/sample. Assay plates are then incubated for 4 days followed by a cell viability test using the same CellTiter Glo reagent addition and measurement of luminescent readouts. Untreated cell and cells treated at 2 μM puromycin (Sigma, St. Louis, MO) serve as 100% and 0% cell viability control, respectively.

RSV strain A2 = assay: RSV HEp-2 EC50 (infectious cytopathic cell protection assay); format: cell-based, RSV strain A2; HEp-2 cells; settings: human respiratory syncytial virus, HEp-2, 96 h, read-out: RSV Hep-2 EC50
Procedure: Example 86. RSV HEp-2 EC50
Antiviral activity against RSV is determined using an infectious cytopathic cell protection assay in HEp-2 cells. In this assay, compounds inhibiting viral infection and/or replication produce a cytoprotective effect against the virus-induced cell killing that can be quantified using a cell viability reagent. The techniques used here are novel adaptations of methods described in published literature (Chapman et al., Antimicrob Agents Chemother. 2007, 51(9):3346-53.)
HEp-2 cells are obtained from ATCC (Manassas, VI) and maintained in MEM media supplemented with 10% fetal bovine serum and penicillin/streptomycin. Cells are passaged twice a week and kept at subconfluent stage. Commercial stock of RSV strain A2 (Advanced Biotechnologies, Columbia, MD) is titered before compound testing to determine the appropriate dilution of the virus stock that generates desirable cytopathic effect in HEp-2 cells.
For antiviral tests, HEp-2 cells are grown in large cell culture flasks to near confluency but not fully so. The compounds to be tested are prediluted in DMSO in 384-well compound dilution plates, either in an 8 or 40 sample per plate standardized dose response format. 3-fold serial dilution increments of each test compound are prepared in the plates and test samples are transferred via acoustic transfer apparatus (Echo, Labcyte) at 100 nL per well into cell culture assay 384-well plates. Each compound dilution is transferred in single or quadruplicate samples into dry assay plates, which are stored until assay is ready to go. The positive and negative controls are laid out in opposite on ends of the plate in vertical blocks (1 column).
Subsequently, an infectious mixture is prepared using an appropriate dilution of virus stock previously determined by titration with cells at a density of 50,000/mL and 20 uL/well is added to test plates w/compounds via automation (uFlow, Biotek). Each plate includes negative and positive controls (16 replicates each) to create 0% and 100% virus inhibition standards, respectively. Following the infection with RSV, testing plates are incubated for 4 days in a 37° C. cell culture incubator. After the incubation, a cell viability reagent, Cell TiterGlo (Promega, Madison, WI) is added to the assay plates, which are incubated briefly, and a luminescent readout is measured (Envision, Perkin Elmer) in all the assay plates. The RSV-induced cytopathic effect, percentage inhibition, is determined from the levels of remaining cell viability. […] Various potent anti-RSV tool compounds are used as positive controls for antiviral activity.

[2] = tested on: Dengue serotype 2 New Guinea C (NGC) strain; assay: DENV-2 Huh-7 EC50 (qPCR of viral RNA in infected Huh7 cells); format: cell-based; settings: Dengue virus, DENV2, Huh-7, Huh7 cells infected with Dengue serotype 2 NGC, MOI=0.1, 48 hours
Procedure: Huh7 (Human hepatocarcinoma 7) cells were maintained in 10% FCS-containing DMEM complete media. On the day of the assay, cells were trypsinized (0.1% Trypsin-EDTA), washed and infected for 2 hours in serum-free DMEM with Dengue serotype 2 New Guinea C (NGC) strain at MOI=0.1 with gentle agitation at 37° C. After 2 hours, cells were washed with serum-free media and suspended in 10% FCS-containing DMEM (Gibco, supplemented with sodium pyruvate, NEAA, Penicillin-Streptomycin). 10^5 cells were plated in triplicate in 96-well plates with compounds dispensed at graded doses (Hewlett-Packard D300 Digital Dispenser). All wells were normalized to 0.25% DMSO. At 48 hours, cells were washed with 1× PBS and all supernatants removed. Total RNA was extracted using RNEasy 96 plates (Qiagen) and used to generate first-strand cDNA using XLT cDNA 5× Supermix (QuantaBio). cDNA was used as a template in a Taqman qPCR duplex reaction specific to DENV2 viral and GAPDH gene expression. EC50 values were determined using Prism Graphpad software, with normalization to a positive control and no compound negative control wells.

[3] = Huh-7 CC50 (CellTiter Glo viability); format: cell-based, Human; settings: human, Huh7 hepatocarcinoma cells
Procedure: Human hepatocarcinoma 7 (Huh7) cells were maintained in 10% FCS-containing complete DMEM. On day of assay, cells were trypsinized with 0.1% Trypsin-EDTA, washed and cultured in triplicate at 1-2×10^4 cells/well in 96-well plates with compounds dispensed at graded doses (Hewlett-Packard D300 Digital Dispenser). All wells were normalized to 0.25% DMSO. After 48 hours, CellTiter Glo (Promega) was added and incubated for 10 minutes at room temp before reading on a luminometer. % viability curves were calculated against no compound and no cell control wells. CC50 values were determined using Prism Graphpad software.

Compound | CC50 at 4 days [1] [µM] | EC50 (RSV strain A2) [µM] | EC50 [2] [µM] | CC50 at 48 h [3] [µM]
CCOC(=O)[C@H](C)NP(=O)(OC[C@@]1(CF)O[C@@H](c2ccc3c(N)ncnn23)[C@H](O)[C@@H]1O)Oc1ccc(C(C)(C)C)cc1 (mixture of isomers) [Example 47, ethyl ((((2R,3S,4R,5S)-5-(4-aminopyrrolo[2,1-f][1,2,4]triazin-7-yl)-2-(fluoromethyl)-3,4-dihydroxytetrahydrofuran-2-yl)methoxy)(4-(tert-butyl)phenoxy)phosphoryl)-L-alaninate] | 65.9 | 0.389 | 0.65 | 21.4
CCC(=O)O[C@H]1[C@H](c2ccc3c(N)ncnn23)O[C@](CF)(CO[P@@](=O)(N[C@@H](C)C(=O)OCC(CC)CC)Oc2ccccc2)[C@H]1OC(=O)CC (single isomer, unassigned) [Example 61] | 19.1 | 0.855 | 0.568 | 15
CCC(CC)COC(=O)[C@H](C)N[P@](=O)(OC[C@@]1(CF)O[C@@H](c2ccc3c(N)ncnn23)[C@H](OC(=O)C(C)C)[C@@H]1OC(=O)C(C)C)Oc1ccccc1 (single isomer, unassigned) [Example 62] | – | 10.1 | 0.662 | 8.09
CC(C)C(=O)O[C@H]1[C@H](c2ccc3c(N)ncnn23)O[C@](CF)(CO[P@@](=O)(N[C@@H](C)C(=O)OC2COC2)Oc2ccccc2)[C@H]1OC(=O)C(C)C (single isomer, unassigned) [Example 73] | – | – | 0.302 | 9.34
CCC(CC)COC(=O)[C@H](C)NP(=O)(OC[C@@]1(CCl)O[C@@H](c2ccc3c(N)ncnn23)[C@H](O)[C@@H]1O)Oc1ccccc1 (stereo partly drawn) [Comp. Ex. 1, 2-ethylbutyl ((((2R,3S,4R,5S)-5-(4-aminopyrrolo[2,1-f][1,2,4]triazin-7-yl)-2-(chloromethyl)-3,4-dihydroxytetrahydrofuran-2-yl)methoxy)(phenoxy)phosphoryl)-L-alaninate, reference compound] | – | – | 2.33 | –
CCCCCCOC(=O)[C@H](C)NP(=O)(OC[C@@]1(CF)O[C@@H](c2ccc3c(N)ncnn23)[C@H](O)[C@@H]1O)Oc1ccccc1 (stereo partly drawn) [Example 17, hexyl ((((2R,3S,4R,5S)-5-(4-aminopyrrolo[2,1-f][1,2,4]triazin-7-yl)-2-(fluoromethyl)-3,4-dihydroxytetrahydrofuran-2-yl)methoxy)(phenoxy)phosphoryl)-L-alaninate] | > 100 | 0.516 | 0.51 | > 25
CC(=O)O[C@H]1[C@H](c2ccc3c(N)ncnn23)O[C@](CF)(CO[P@@](=O)(N[C@@H](C)C(=O)OC(C)C)Oc2ccccc2)[C@H]1OC(C)=O [Example 20, (2R,3S,4S,5S)-5-(4-aminopyrrolo[2,1-f][1,2,4]triazin-7-yl)-2-(fluoromethyl)-2-((((S)-(((S)-1-isopropoxy-1-oxopropan-2-yl)amino)(phenoxy)phosphoryl)oxy)methyl) tetrahydrofuran-3,4-diyl diacetate] | > 100 | 3.18 | 2.57 | > 25
C[C@H](NP(=O)(OC[C@@]1(CF)O[C@@H](c2ccc3c(N)ncnn23)[C@H](O)[C@@H]1O)Oc1ccccc1)C(=O)OCC(C)(C)O (stereo partly drawn) [Example 26, 2-hydroxy-2-methylpropyl ((((2R,3S,4R,5S)-5-(4-aminopyrrolo[2,1-f][1,2,4]triazin-7-yl)-2-(fluoromethyl)-3,4-dihydroxytetrahydrofuran-2-yl)methoxy)(phenoxy)phosphoryl)-L-alaninate] | > 100 | 39.3 | > 24 | > 25
CO[C@@H](C)COC(=O)[C@H](C)NP(=O)(OC[C@@]1(CF)O[C@@H](c2ccc3c(N)ncnn23)[C@H](O)[C@@H]1O)Oc1ccccc1 (stereo partly drawn) [Example 30, (S)-2-methoxypropyl ((((2R,3S,4R,5S)-5-(4-aminopyrrolo[2,1-f][1,2,4]triazin-7-yl)-2-(fluoromethyl)-3,4-dihydroxytetrahydrofuran-2-yl)methoxy)(phenoxy)phosphoryl)-L-alaninate] | > 100 | 4.13 | – | –
C[C@H](NP(=O)(OC[C@@]1(CF)O[C@@H](c2ccc3c(N)ncnn23)[C@H](O)[C@@H]1O)Oc1ccccc1)C(=O)O[C@@H]1CCN(C)C1 (stereo partly drawn) [Example 35, (R)-1-methylpyrrolidin-3-yl ((((2R,3S,4R,5S)-5-(4-aminopyrrolo[2,1-f][1,2,4]triazin-7-yl)-2-(fluoromethyl)-3,4-dihydroxytetrahydrofuran-2-yl)methoxy) (phenoxy)phosphoryl)-L-alaninate] | > 100 | 42.8 | > 25 | > 25
CO[C@H](C)COC(=O)[C@H](C)NP(=O)(OC[C@@]1(CF)O[C@@H](c2ccc3c(N)ncnn23)[C@H](O)[C@@H]1O)Oc1ccccc1 (stereo partly drawn) [Example 39, (R)-2-methoxypropyl ((((2R,3S,4R,5S)-5-(4-aminopyrrolo[2,1-f][1,2,4]triazin-7-yl)-2-(fluoromethyl)-3,4-dihydroxytetrahydrofuran-2-yl)methoxy)(phenoxy)phosphoryl)-L-alaninate] | > 100 | 2.47 | – | –
CCOC(=O)[C@H](C)NP(=O)(OC[C@@]1(CF)O[C@@H](c2ccc3c(N)ncnn23)[C@H](O)[C@@H]1O)Oc1cccc2ccccc12 (stereo partly drawn) [Example 44, ethyl ((((2R,3S,4R,5S)-5-(4-aminopyrrolo[2,1-f][1,2,4]triazin-7-yl)-2-(fluoromethyl)-3,4-dihydroxytetrahydrofuran-2-yl)methoxy)(naphthalen-1-yloxy)phosphoryl)-L-alaninate] | 26.5 | 0.148 | 0.191 | 17.1
C[C@H](NP(=O)(OC[C@@]1(CF)O[C@@H](c2ccc3c(N)ncnn23)[C@H](O)[C@@H]1O)Oc1ccccc1)C(=O)OC1CCOCC1 (stereo partly drawn) [Example 64, tetrahydro-2H-pyran-4-yl ((((2R,3S,4R,5S)-5-(4-aminopyrrolo[2,1-f][1,2,4]triazin-7-yl)-2-(fluoromethyl)-3,4-dihydroxytetrahydrofuran-2-yl)methoxy)(phenoxy)phosphoryl)-L-alaninate] | – | – | 2 | > 25
CCC(CC)COC(=O)[C@H](C)N[P@](=O)(OC[C@@]1(CF)O[C@@H](c2ccc3c(NC(=O)c4ccccc4)ncnn23)[C@H](O)[C@@H]1O)Oc1ccccc1 [Example 75, 2-ethylbutyl ((S)-(((2R,3S,4R,5S)-5-(4-benzamidopyrrolo[2,1-f][1,2,4]triazin-7-yl)-2-(fluoromethyl)-3,4-dihydroxytetrahydrofuran-2-yl)methoxy)(phenoxy)phosphoryl)-L-alaninate] | – | – | 0.175 | –
